From US20230277573A1, “OLIGOSACCHARIDE COMPOSITIONS AND METHODS OF USE” (DSM Nutritional Products, LLC, priority 2020, published 2023)

Tested on: western diet (WD)-induced obese low density lipoprotein receptor knock-out (ldlr−/−) mouse model
Experiment: Western diet (WD)-induced obese ldlr−/− mouse model: blood, liver, aorta and body weight readouts
Assay type: in vivo
Details: WD-fed ldlr−/− mice, 16 wk, fenofibrate 100 mg/kg/day
Procedure: The therapeutic and microbiome effects of the selected oligosaccharide composition were tested in a validated western diet (WD)-induced obese low density lipoprotein receptor knock-out (ldlr^−/−) mouse model, thought to recapitulate a number of metabolic pathologies found in humans, including obesity, hyperglycemia, glucose intolerance, hyperinsulinemia, insulin resistance, severe hypercholesterolemia, hypertriglyceridemia, atherosclerosis, hepatic steatosis and hepatic inflammation. […]
9-11 weeks old male C57BL/6J ldlr^−/− mice were split into one of four treatment groups (12 animals per group, 4 animals per cage)—(1) no treatment (NT), (2) the selected oligosaccharide (as produced by the process described in Example 2), (3) a glucose/galactose-based oligosaccharide composition and (4) fenofibrate—for 16 weeks. […] The body weight for each animal was measured prior to the treatment period and weekly over the treatment period. 4-day food intake for each cage was measured weekly over the treatment period and averaged as food intake per mouse per day. […] For each animal, separate liver sections (˜100 mg each) were collected and frozen for the quantification of hepatic TG and hepatic TC. […] The aortic arch was surface stained with oil red O for the quantification of atherosclerotic plaque surface area.

CC(C)OC(=O)C(C)(C)Oc1ccc(C(=O)c2ccc(Cl)cc2)cc1 [fenofibrate, Fenofibrate]
effect on food intake (OS 7.5% w/w in diet): no effect
body weight gain lowered by, compared to NT: 44%
